In general, IC50 refers to the concentration that gives 50% inhibition. A higher IC50 goes with weaker potency.

From patent US10807956B2, “Histone demethylase inhibitors” (CELGENE QUANTICEL RESEARCH, INC., priority 2012, dated 2020) come the findings set out here.

The target in the assay is JMJD2C (Homo sapiens (Human), UniProt Q9H3R0). Briefly: JMJD2C TR-FRET enzyme inhibition assay. The assay is classed as biochemical. The conditions noted are these: H3K9me3-biotin peptide. (TR-FRET usually uses a lanthanide donor and a delayed reading to cut background.)
JMJD2C, sequence (Q9H3R0 2-372): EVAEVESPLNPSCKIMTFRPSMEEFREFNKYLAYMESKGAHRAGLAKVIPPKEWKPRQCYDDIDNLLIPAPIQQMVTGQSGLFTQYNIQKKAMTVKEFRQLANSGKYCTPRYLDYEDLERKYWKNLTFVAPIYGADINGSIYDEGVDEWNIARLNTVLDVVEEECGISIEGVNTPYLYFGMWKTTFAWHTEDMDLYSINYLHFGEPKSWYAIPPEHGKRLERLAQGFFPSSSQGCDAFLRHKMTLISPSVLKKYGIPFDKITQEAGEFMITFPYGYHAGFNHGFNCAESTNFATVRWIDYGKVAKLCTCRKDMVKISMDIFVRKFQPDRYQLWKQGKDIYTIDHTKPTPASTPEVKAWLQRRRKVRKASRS
Description: This assay determines the ability of a test compound to inhibit Jarid1A, Jarid1B, and JMJD2C demethylase activity. Baculovirus expressed Jarid1A (GenBank Accession # NM_001042603, AA1-1090) was purchased from BPS Bioscience (Cat #50110). Baculovirus expressed Jarid1B (GenBank Accession # NM_006618, AA 2-751) was purchased from BPS Bioscience (Cat #50121) or custom made by MolecularThroughput. Baculovirus-expressed JMJD2C (GenBank Accession # BC143571, AA 2-372) was purchased from BPS Bioscience (Cat #50105).
The ability of test compounds to inhibit the activity of JMJD2C was determined in 384-well plate format under the following reaction conditions: 0.3 nM JMJD2C, 300 nM H3K9me3-biotin labeled peptide (Anaspec cat #64360), 2 μM alpha-ketoglutaric acid in assay buffer of 50 mM HEPES, pH7.3, 0.005% Brij35, 0.5 mM TCEP, 0.2 mg/ml BSA, 50 μM sodium L-ascorbate, and 2 μM ammonium iron(II) sulfate. Reaction product was determined quantitatively by TR-FRET after the addition of detection reagent Phycolink Streptavidin-allophycocyanin (Prozyme) and Europium-anti-di-methylated histone H3 lysine 9 (H3K9me2) antibody (PerkinElmer) in the presence of 5 mM EDTA in LANCE detection buffer (PerkinElmer) at a final concentration of 50 nM and 1 nM, respectively.
The assay reaction was initiated by the following: 2 μl of the mixture of 900 nM H3K9me3-biotin labeled peptide and 6 μM alpha-ketoglutaric acid with 2 μl of 11-point serial diluted inhibitor in 3% DMSO were added to each well of the plate, followed by the addition of 2 μl of 0.9 nM JMJD2C to initiate the reaction. The reaction mixture was incubated at room temperature for 30 min, and terminated by the addition of 6 μl of 5 mM EDTA in LANCE detection buffer containing 100 nM Phycolink Streptavidin-allophycocyanin and 2 nM Europium-anti-H3K9me2 antibody. Plates were read by EnVisionMultilabel Reader in TR-FRET mode (excitation at 320 nm, emission at 615 nm and 665 nm) after 1 hr incubation at rt. A ratio was calculated (665/615) for each well and fitted to determine inhibition constant (IC50).
“3-{[(6-chloro-1,2,3,4-tetrahydronaphthalen-1-yl)methyl]- amino}pyridine-4-carboxylic acid [Example 68]” gave an IC50 of 100 to 1000 nM. In the case of “3-{[(6-chloro-1-hydroxy-1,2,3,4-tetrahydronaphthalen-1- yl)methyl]amino}pyridine-4-carboxylic acid [Example 67]”, the concentration for half-maximal inhibition (IC50) is 100 to 1000 nM. In the case of “3-{[(7-fluoro-3,4-dihydro-2H-chromen-4-yl)methyl]- amino}pyridine-4-carboxylic acid [Example 65]”, the IC50 is < 100 nM.
